Measurements taken from ChEMBL document CHEMBL1145669, “Antihepatotoxic principles of Atractylodes rhizomes” (1983).

The compounds below were run on Hepatocyte (assay: Antihepatotoxic activity against carbon tetrachloride-induced cytotoxicity in rat hepatocytes assessed as GPT level at 0.1 mg/mL relative to control). Conditions: not given.
Assay type: functional

Structure (SMILES)	Activity
C=C1CCC[C@]2(C)Cc3occ(C)c3C[C@@H]12 [ATRACTYLON]	53%
CC1=CCC[C@H](C)[C@@]12CC[C@@H](C(C)(C)O)C2 [HINESOL]	62%
OCc1ccco1 [FURFURYL ALCOHOL]	101%
C=C1CCC[C@]2(C)CC[C@@H](C(C)(C)O)C[C@@H]12 [BETA-EUDESMOL]	70%

What follows are compounds tested on Hepatocyte (assay: Antihepatotoxic activity against carbon tetrachloride-induced cytotoxicity in rat hepatocytes assessed as GPT level at 0.01 mg/mL relative to control). Conditions: not given.
Assay type: functional

Structure (SMILES)	Activity
C=C1CCC[C@]2(C)Cc3occ(C)c3C[C@@H]12 [ATRACTYLON]	67%
CC1=CCC[C@H](C)[C@@]12CC[C@@H](C(C)(C)O)C2 [HINESOL]	79%
OCc1ccco1 [FURFURYL ALCOHOL]	102%
C=C1CCC[C@]2(C)CC[C@@H](C(C)(C)O)C[C@@H]12 [BETA-EUDESMOL]	83%

What follows are compounds tested on Hepatocyte (assay: Antihepatotoxic activity against galactosamine-induced cytotoxicity in rat hepatocytes assessed as GPT level at 0.1 mg/mL relative to control). Conditions: not given.
Assay type: functional

Structure (SMILES)	Activity
C=C1CCC[C@]2(C)Cc3occ(C)c3C[C@@H]12 [ATRACTYLON]	92%
CC1=CCC[C@H](C)[C@@]12CC[C@@H](C(C)(C)O)C2 [HINESOL]	99%
C=C1CCC[C@]2(C)CC[C@@H](C(C)(C)O)C[C@@H]12 [BETA-EUDESMOL]	94%

What follows are compounds tested on Hepatocyte (assay: Antihepatotoxic activity against carbon tetrachloride-induced cytotoxicity in rat hepatocytes assessed as GPT level at 1 mg/mL relative to control). Conditions: not given.
Assay type: functional

Structure (SMILES)	Activity
CC1CCC[C@H](C)[C@@]12CC[C@@H](C(C)(C)O)C2 (stereo partly drawn) [DIHYDROHINESOL]	67%
C=C1CCC[C@]2(C)C=C3OC(=O)C(C)=C3C[C@@H]12 [ATRACTYLENOLIDE I]	68%
C=C1CCC[C@]2(C)C[C@]3(O)OC(=O)C(C)=C3C[C@@H]12 [ATRACTYLENOLIDE III]	103%
C=C1CCC[C@]2(C)Cc3occ(C)c3C[C@@H]12 [ATRACTYLON]	25%
CC1=CCC[C@H](C)[C@@]12CC[C@@H](C(C)(C)O)C2 [HINESOL]	31%
C=C1CCC[C@]2(C)C[C@@H]3OC(=O)C(C)=C3C[C@@H]12 [ATRACTYLENOLIDE II]	74%
C[C@H]1CCC[C@]2(C)CC[C@@H](C(C)(C)O)C[C@H]12 [DIHYDROEUDESMOL]	58%
C[C@H]1CCC[C@]2(C)CC(O)[C@@H](C(C)(C)O)C[C@@H]12 (stereo partly drawn)	44%
C[C@H]1CCC[C@]2(C)CC(=O)[C@@H](C(C)(C)O)C[C@@H]12	71%
OCc1ccco1 [FURFURYL ALCOHOL]	90%
C=C1CCC[C@]2(C)CC[C@@H](C(C)(C)O)C[C@@H]12 [BETA-EUDESMOL]	53%

What follows are compounds tested on Hepatocyte (assay: Antihepatotoxic activity against galactosamine-induced cytotoxicity in rat hepatocytes assessed as GPT level at 0.01 mg/mL relative to control). Conditions: not given.
Assay type: functional

Structure (SMILES)	Activity
C=C1CCC[C@]2(C)Cc3occ(C)c3C[C@@H]12 [ATRACTYLON]	99%
CC1=CCC[C@H](C)[C@@]12CC[C@@H](C(C)(C)O)C2 [HINESOL]	101%
C=C1CCC[C@]2(C)CC[C@@H](C(C)(C)O)C[C@@H]12 [BETA-EUDESMOL]	104%

Each compound was assayed on Hepatocyte (assay: Antihepatotoxic activity against galactosamine-induced cytotoxicity in rat hepatocytes assessed as GPT level at 1 mg/mL relative to control). Conditions: not given.
Assay type: functional

Structure (SMILES)	Activity
CC1CCC[C@H](C)[C@@]12CC[C@@H](C(C)(C)O)C2 (stereo partly drawn) [DIHYDROHINESOL]	35%
C=C1CCC[C@]2(C)C=C3OC(=O)C(C)=C3C[C@@H]12 [ATRACTYLENOLIDE I]	107%
C=C1CCC[C@]2(C)C[C@]3(O)OC(=O)C(C)=C3C[C@@H]12 [ATRACTYLENOLIDE III]	97%
C=C1CCC[C@]2(C)Cc3occ(C)c3C[C@@H]12 [ATRACTYLON]	84%
CC1=CCC[C@H](C)[C@@]12CC[C@@H](C(C)(C)O)C2 [HINESOL]	73%
C=C1CCC[C@]2(C)C[C@@H]3OC(=O)C(C)=C3C[C@@H]12 [ATRACTYLENOLIDE II]	94%
C[C@H]1CCC[C@]2(C)CC[C@@H](C(C)(C)O)C[C@H]12 [DIHYDROEUDESMOL]	83%
C[C@H]1CCC[C@]2(C)CC(O)[C@@H](C(C)(C)O)C[C@@H]12 (stereo partly drawn)	82%
C[C@H]1CCC[C@]2(C)CC(=O)[C@@H](C(C)(C)O)C[C@@H]12	81%
C=C1CCC[C@]2(C)CC[C@@H](C(C)(C)O)C[C@@H]12 [BETA-EUDESMOL]	79%

The compounds below were run against T1, Alanine aminotransferase 1 (Rattus norvegicus) (UniProt P25409) (assay: Effect on GPT in rat hepatocytes relative to control). Conditions: Hepatocyte.
T1 sequence (whole entry): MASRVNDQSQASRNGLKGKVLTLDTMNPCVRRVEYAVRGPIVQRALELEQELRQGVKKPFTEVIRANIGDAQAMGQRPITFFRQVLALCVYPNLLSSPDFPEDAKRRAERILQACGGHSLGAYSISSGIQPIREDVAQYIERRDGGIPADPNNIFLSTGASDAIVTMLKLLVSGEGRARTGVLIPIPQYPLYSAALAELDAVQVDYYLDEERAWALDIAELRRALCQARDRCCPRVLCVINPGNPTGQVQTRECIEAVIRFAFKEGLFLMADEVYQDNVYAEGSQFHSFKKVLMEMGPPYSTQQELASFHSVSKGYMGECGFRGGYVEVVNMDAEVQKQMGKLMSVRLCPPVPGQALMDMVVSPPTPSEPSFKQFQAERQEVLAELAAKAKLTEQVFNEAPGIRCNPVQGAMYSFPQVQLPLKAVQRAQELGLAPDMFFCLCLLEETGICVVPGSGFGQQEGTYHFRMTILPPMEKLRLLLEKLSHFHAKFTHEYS
Assay type: cell-based

Activity	Structure (SMILES)
106%	C=C1CCC[C@]2(C)Cc3occ(C)c3C[C@@H]12 [ATRACTYLON]
105%	CC1=CCC[C@H](C)[C@@]12CC[C@@H](C(C)(C)O)C2 [HINESOL]
106%	C=C1CCC[C@]2(C)CC[C@@H](C(C)(C)O)C[C@@H]12 [BETA-EUDESMOL]
